Data on 7 compounds can be found in patent US20040053355A1, “Modular approach to on-line synthesis, drug discovery and biochemical transformations using immobilized enzyme reactors” (priority 2000, published 2004).

Where a name gives a salt, the structure may show the parent alone. Read-outs that look alike come from different tables or passages of the source.

Assay [1] deals with T1, phenylethanolamine N-methyltransferase (PNMT), non-immobilized (Bos taurus, UniProt P10938).
T1 sequence (P10938 1-283): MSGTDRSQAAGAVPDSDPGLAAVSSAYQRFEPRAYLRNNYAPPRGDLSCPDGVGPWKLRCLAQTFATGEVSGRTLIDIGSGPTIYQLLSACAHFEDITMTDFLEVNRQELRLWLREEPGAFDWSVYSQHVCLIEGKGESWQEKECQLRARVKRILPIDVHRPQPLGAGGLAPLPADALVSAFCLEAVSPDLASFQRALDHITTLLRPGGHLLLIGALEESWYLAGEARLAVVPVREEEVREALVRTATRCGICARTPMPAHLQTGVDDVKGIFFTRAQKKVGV
The assay is described as follows: Non-immobilized PNMT activity assay, batch incubation with HPLC-fluorescence analysis. It is filed as biochemical, bovine. On the procedure:
A mobile phase consisting of potassium phosphate buffer (50 mM) adjusted to pH 2.0 with trifluoroacetic acid was utilized to achieve the desired chromatographic separation of the products from the substrates. The solutes were quantitated using fluorescence detection with excitation at λ=266 nm and emission at λ=380 nm. A flow rate of 0.7 ml/min and ambient temperature were used throughout the study.
(§1) The activity of phenylethanolamine N-methyltransferase was assayed as follows: [final concentration] To 500 μL of enzyme solution [163 μg] was added 50 μL S-adenosyl-L-methionine [20 μM] and the solution was vortexed for 1 min. The reaction was started by addition of the 50 μL substrate [1 mM]. The reaction medium was incubated for 10 min at 37° C. in a shaking bath. The resulting solution was centrifuged at 3000×g and the supernatant were directly injected onto the HPLC under the above mentioned conditions.

For assay [2], the target named is T2, PNMT-Glut-P stationary phase (PNMT-SP) (Bos taurus, UniProt P10938).
T2 sequence (P10938 1-283): T1 sequence (P10938 1-283)
The assay is described as follows: PNMT immobilized on Glut-P stationary phase (PNMT-SP), batch assay. In kind it is biochemical, bovine. On the procedure:
as §1
Immobilization onto the Glut-P Liquid Chromatographic stationary phase was accomplished in the following manner: (1) the stationary phase (10-100 mg) was washed three times with 0.1 M sodium phosphate buffer adjusted to pH 8.30 with 5M NaOH. The washing was carried out by adding 1 ml of buffer to the stationary phase, the suspension was mixed for 1 min, centrifuged at 3000×g for 10 min, and the supernatant decanted. (2) The enzyme solution [98 μg in 0.6 ml sodium phosphate buffer (0.1M, pH 8.30)] was added to the packing material, the mixture was mixed gently for 5 min and then placed in a rotator/stirrer bath for 18 h at ambient temperature. (3) At the end of 18 h, the suspension was centrifuged, the supernatant decanted and the packing material was washed three additional times with buffer. (4) The amount of enzyme immobilized on the packing material was determined by measuring the amount of residual enzyme in the supernatant using the BioRad Protein Assay. The difference in the absorbance reading before immobilization and the combined absorbances of the washings after immobilization determined the amount of enzyme bound on the packing material.

For assay [3], the target named is T3, PNMT-IMER (immobilized phenylethanolamine N-methyltransferase) (Bos taurus, UniProt P10938).
T3 sequence (P10938 1-283): T1 sequence (P10938 1-283)
Description: On-line PNMT immobilized enzyme reactor (PNMT-IMER) HPLC system. In kind it is biochemical, bovine. The conditions noted are these: for IC50: n = 2, read-out: IC 50 PNMT-IMER. From the text:
PNMT immobilized on the Glut-P stationary phase was packed into a lcm×10 mm guard (Regis Technologies). The guard was put into a holder and the column was placed onto the chromatographic system. The PNMT-IMER was washed with phosphate buffer [0.1M, pH 8.3]. The eluent was collected in order to determine if any of the enzyme was being washed off the column. The Biorad assay was utilized to measure the amount of non-immobilized enzyme. When the column was not in use it was washed with phosphate buffer [0.1M, pH 8.3] and stored at 4° C.
The pump on system 2 is stopped. 100 μl of a substrate/cofactor mixture is loaded into the injector (i) and the value is switched to the inject position at the same time the switching valve (SV) is switched such that the substrate/product are eluted from the PNMT-IMER and concentrated onto the analytical columns of System 2 for the specified contact time. When the specific contact time elapses the SV is switched back to the original position and the pump on system 2 is started. The unreacted substrate and product formed are separated on the coupled analytical columns.
The enzymatic activity on the PNMT-IMER was determined by quantification of the amount of product formed with a given substrate. The temperature of the PNMT-IMER unless otherwise stated was kept at 37° C. with a column heater. Stock solutions of normetanephrine were prepared in water. The substrate concentrations examined ranged from 0.15-10 mM and that of the cofactor, S-adenosyl-L-methionine, ranged from 5-100 μM.
Enzymatic activity was examined carrying out injections of a series of substrate/cofactor mixtures. The mixtures were injected onto the IMER at a flow rate of 0.2 ml/min for a contact time of 20 min. The kinetic parameters were determined by drawing Lineweaver-Burke plots utilizing Microsoft Excel. Results are expressed as mean±standard error of the mean (SEM).
The effect of known inhibitors, S-adenosylhomocysteine and methyldopa on the enzymatic activity of the PNMT-IMER was also examined. The inhibition of the PNMT-IMER was carried out using injections of a series of substrate/cofactor/inhibitor mixtures.

For assay [4], the target named is T2, PNMT-Glut-P stationary phase (PNMT-SP). As to conditions: Table 7, *Data obtained from reference 14; cited from earlier work.
Setting [5] is: non-immobilized PNMT, read-out: Ki PNMT.
Where [6] appears, read: immobilized PNMT, read-out: Ki PNMT-SP.
Setting [7] is: 0.2 ml/min, contact time 20 min, 37° C., n = 2.

Consider `CCN1C(=O)C=CC1=O` [N-ethylmaleimide], for which the Ki (usually a dissociation constant, usually derived from enzyme kinetics or from competition with a known ligand) in assay [1] (setting [5]) amounted to 1.04 ± 0.49 µM; in assay [2] (setting [6]), 4.92 ± 0.16 µM.
With `O=S(=O)(O)c1cc[c]([Hg][Cl])cc1` [p-chloromercuriphenylsulfonic acid, p-chloromercuriphenylsulfonic acid monosodium salt], the values for the Ki in assay [1] and in assay [2] were 120 ± 140 µM and 520 ± 190 µM, respectively.
In turn, `Nc1ncnc2c1ncn2[C@@H]1O[C@H](CSCC[C@H](N)C(=O)O)[C@@H](O)[C@H]1O` [SAH, S-adenosyl-L-homocysteine] came in with an IC50 in assay [1] of 40.1 µM. Moreover, in assay [3], the “concentration as low as which the PNMT-IMER is inhibited” value was 5 µM and the IC50 was 50.5 ± 1.5 µM.
For `COc1cc(C(O)CN)ccc1O` (racemic) [Normetanephrine, DL-normetanephrine hydrochloride], in assay [2] (PNMT-SP, Table 5), the Vmax (commonly the rate approached at saturating substrate) came to 0.823 µmol/mg/min. Also, in assay [4], the Km (commonly the concentration of substrate that gives half-maximal velocity) was 152 µM and the Vmax was 0.823 µmol/mg/min.
Turning to `C[S+](CC[C@H](N)C(=O)O)C[C@H]1O[C@@H](n2cnc3c(N)ncnc32)[C@H](O)[C@@H]1O` (stereo partly drawn) [SAM, S-adenosyl-L-methionine], the Km in assay [1] (non-immobilized PNMT) is 14.2 µM; in assay [2] (PNMT-SP, Table 5), 10.6 µM; in assay [3] (setting [7]) it was 7.31 µM; in assay [4] it was 10.6 µM. Moreover, the Vmax was 1.249 µmol/mg/min in assay [1] (non-immobilized PNMT); 0.654 µmol/mg/min in assay [2] (PNMT-SP, Table 5); 0.424 µmol/mg/min in assay [3] (setting [7]); 0.254 µmol/mg/min in assay [4].
Take `Cl.NCc1ccccc1` [Benzylamine, benzylamine hydrochloride]: the “concentration as low as which the enzyme is inhibited” value in assay [1] (non-immobilized PNMT) and in assay [2] (immobilized PNMT) was 100 µM throughout. The Ki in assay [1] (setting [5]) was 220 ± 110 µM; in assay [2] (setting [6]) it was 690 ± 100 µM. In addition, in assay [2] (FIG. 8), the “inhibition of PNMT activity, immobilized PNMT compared to the non-immobilized PNMT” value is “three times higher”.
In the case of methyl-dopa, the IC50 turned out to be 10.4 µM in assay [1] (non-immobilized PNMT, n = 2, read-out: IC 50 PNMT) and 7.6 ± 0.2 µM in assay [3]. Further, in assay [3], the “concentration as low as which the PNMT-IMER is inhibited” value amounted to 1 µM.
